Here are results for eight molecules from publication PMC10607100, “Anticancer and Antiphytopathogenic Activity of Fluorinated Isatins and Their Water-Soluble Hydrazone Derivatives” (International Journal of Molecular Sciences, 2023).

The subject of data set [1] is HuTu 80 cells. Kind of data set: Apoptosis induction, annexin V/propidium iodide flow cytometry. It is filed as cell-based, human. The note with it: 24 h; IC50 concentration of 40 μM. How it is done:
HuTu 80 cells at 1 × 10^6 cells/well in a final volume of 2 mL were seeded into six-well plates. After 24 h of incubation, various concentrations of tested compounds were added to the wells. The cells were harvested at 2757 g for 5 min and then washed twice with ice-cold PBS, followed by resuspension in binding buffer. Next, the samples were incubated with 5 μL of annexin V-Alexa Fluor 647 (Sigma-Aldrich, Burlington, MA, USA) and 5 μL of propidium iodide for 15 min at room temperature in the dark. Finally, the cells were analyzed by flow cytometry (Guava easyCyte, Merck, Rahway, NJ, USA) within 1 h. The experiments were repeated three times.
In general terms: In flow cytometry, cells or beads pass a laser one at a time.

Data set [2] concerns platelet aggregation. Kind of data set: Platelet aggregation, Born method. The note with it: for reduction of the maximum platelet aggregation, on average: text summary for 3a and 3b. It is filed as cell-based, human. The protocol: The in vitro experiments were performed using the blood of healthy male donors aged 18-24 years (a total of 54 donors). This study was approved by the Ethics Committee of the Federal State Budgetary Educational Institution of Higher Education at the Bashkir State Medical University of the Ministry of Health of the Russian Federation (No. 2, dated 17 October 2012). Informed consent was obtained from all participants before blood sampling. The blood was collected from the cubital vein using the vacuum blood collection system BD Vacutainer® (Becton, Dickinson, and Company, Franklin Lakes, NJ, USA). […] The study of the effect on platelet aggregation was performed using the Born method using the aggregometer «[…], Moscow, Russia). The assessment of the antiplatelet activity of the studied compounds and reference preparations was started with a final concentration of 2 × 10^-3 mol/L. Adenosine diphosphate (ADP; 20 μg/mL) and collagen (5 mg/mL) manufactured by […] Company, Barnaul, Russia, were used as inducers of aggregation. The study on the anticoagulant activity was performed by standard recognized clotting tests using the optical two-channel automatic analyzer of blood coagulation, Solar […] SOLAR, Minsk, Belarus). The following parameters were studied: activated partial thromboplastin time (APTT), prothrombin time (PT), and fibrinogen concentrations according to the Clauss method. The determination of the anticoagulant activity of the studied compounds and reference preparation was performed at a concentration of 5 × 10^-4 g/mL using the reagents manufactured by […] Company (Barnaul, Russia). The results of the study were processed using the statistical package Statistica 10.0 (StatSoft Inc., Tulsa, OK, USA). The Shapiro-Wilk's test was used to check the normality of the [NT] distribution. The form of distribution of the data obtained differed from the normal one; therefore, non-parametric methods were used for further analysis. The data were presented as medians and 25 and 75 percentiles. An analysis of variance was conducted using the Kruskal-Wallis test.

In data set [3] the test system is WI38. Kind of data set: MTT cell viability test, WI38. It is filed as cell-based, human. The conditions noted are these: for IC50: Homo sapiens, WI-38, incubation time 24 h. How it is done: (§1) Human cell cultures of tumor origin—HeLa (cervical tumor), HuTu 80 (human duodenal adenocarcinoma), ChangLiver (human liver HeLa-like line), and normal cell line WI38, VA 13 subline 2RA is a diploid human cell strain composed of fibroblasts derived from healthy lung tissue provided by The Gamaleya National Center for Epidemiology and Microbiology, as well as the Institute of Cytology of the Russian Academy of Sciences. They were grown in a nutrient medium DMEM (PanEco, Moscow, Russia) and MEM (PanEco, Moscow, Russia), containing fetal bovine serum (10% by volume) (ThermoFisher Scientific, Paisley, UK), Glutamax (2 mM) (Gibco, Scotland, UK), and penicillin-streptomycin (1% by volume) (PanEco, Moscow, Russia). The cultivation was carried out at 37 °C in a humidified CO2 atmosphere (5%).
(§2) Cell viability was determined by the MTT test. Cells were seeded in a 96-well plate in the amount of 1 × 10^4 cells/200 µL of complete nutrient medium and cultured at 37 °C in CO2 (5%). After 24 h of incubation, various concentrations of test compounds in the range of 0.1 to 100 μM were added to the cell cultures, and then the cells were cultured under the same conditions for 24 and 72 h. For each concentration, the experiment was carried out in triplicate.
(§3) All compounds were dissolved in DMSO and then diluted with the medium to the required concentration. […] The DMSO was also added to the control wells in a volume of 1%. After the incubation time, MTT (3-(4,5-dimethylthiazol-2-yl)-2,5-diphenyltetrazolium bromide, 5 mg/mL) was added to each well, and plates were additionally incubated for 2 h (until the characteristic color appeared).
(§4) Using a plate analyzer (Cytation3, BioTech Instruments Inc., Winooski, VT, USA), the optical density was determined at 530 nm.
(§5) The IC50 parameter was calculated using the AAT Bioquest program.

The test system of data set [4] is M-HeLa. Description: MTT cell viability test, M-HeLa. The note with it: for IC50: Homo sapiens, M-HeLa, incubation time 24 h; for selectivity (SI) for M-HeLa: IC50 normal cells (WI38) / IC50 M-HeLa. It is filed as cell-based, human. The protocol: as §1, §2, §3, §4, §5
(§6) The selectivity index (SI) is calculated as the ratio between the IC50 for normal cells and the IC50 for cancer cells.

Data set [5] deals with Chang Liver. Description: MTT cell viability test, Chang liver. The conditions noted are these: Homo sapiens, incubation time 24 h. It is filed as cell-based. The protocol: as §1, §2, §3, §4, §5
A general note: Tetrazolium assays rely on reduction of a dye to a coloured formazan, in cell work by metabolically active cells.

In data set [6] the test system is HuTu 80 cells. Description: ROS production, CellROX Deep Red flow cytometry. It is filed as cell-based, human. How it is done: ROS generation was investigated using a flow cytometry assay and the CellROX® Deep Red flow cytometry kit. For this, HuTu 80 cells were harvested at 2000 rpm for 5 min and then washed twice with ice-cold PBS, followed by resuspension in 0.1 mL of medium without FBS, to which was added 0.2 μL of CellROX® Deep Red and incubated at 37 °C for 30 min. After three times washing the cells and suspending them in PBS, the production of ROS in the cells was immediately monitored using a flow cytometer (Guava easyCyte, Merck, Rahway, NJ, USA).

The test system of data set [7] is HuTu 80 cells. Kind of data set: Mitochondrial membrane potential, JC-10 flow cytometry. It is filed as cell-based, human. The conditions noted are these: 24 h; concentrations corresponding to IC50. The protocol: To analyze the effect of compounds on changes in the mitochondrial membrane potential, we performed flow cytometry using JC-10 fluorescent dye (in the Mitochondria Membrane Potential Kit). In normal cells (with high membrane potential), JC-10 accumulates in the mitochondrial matrix, where it forms aggregates with red fluorescence. However, in apoptotic cells, JC-10 diffuses out of mitochondria, converts to its monomeric form, and emits green fluorescence, which is recorded by a flow cytometer. Cells were harvested at 2757 g for 5 min and then washed twice with ice-cold PBS, followed by resuspension in JC-10 (10 µg/mL) and incubation at 37 °C for 10 min. Then, the cells were rinsed three times and suspended in PBS, and the JC-10 fluorescence was observed by flow cytometry (Guava easyCyte, Merck, Rahway, NJ, USA).

Data set [8] has as its system HuTu 80. Kind of data set: MTT cell viability test, HuTu 80. It is filed as cell-based, human. The note with it: for IC50: Homo sapiens, HuTu80, incubation time 24 h; for selectivity (SI) for HuTu 80: IC50 normal cells (WI38) / IC50 HuTu 80. The protocol:
as §1, §2, §3, §4, §5, §6

The term IC50 denotes the point on the concentration scale where inhibition reaches its midpoint. High values mean lower potency, low ones higher potency. In the case of `O=C1C(=O)N(Cc2ccccc2Cl)c2ccc(F)cc21` [Compound 3b, 1-(2-Chlorobenzyl)-5-fluoroindoline-2,3-dione], the “apoptosis-inducing activity” value in data set [1] is “highest apoptosis-inducing activity”. In addition, in data set [2], the “lengthening of the lag-period relative to the control” value is recorded as “more than 10%” and the “reduction of the maximum platelet aggregation, on average” value was about 12%. In addition, in data set [3], the “cytotoxicity against the healthy cell line WI38” value is reported as “low cytotoxicity” and the concentration for half-maximal inhibition (IC50) worked out at 58.1 ± 6.6 µM. Further, in data set [4], the IC50 worked out at 32.1 ± 2.5 µM and the “selectivity (SI) for M-HeLa” value is 1.8. In addition, the “cytotoxicity, times higher than the reference drug 5-FU” value in data set [4] (cell line not given) came out at 2.0 times. This molecule had an IC50 in [5] of 71.5 ± 5.6 µM. The “ROS production relative to the control” value in data set [6] is “increased ROS production”. Besides, the “green fluorescence increased relative to the control” value in data set [7] is “up to 55%”. In data set [8], the IC50 turned out to be 38.3 ± 3 µM and the “selectivity (SI) for HuTu 80” value stood at 1.5.
Broadly, the melting point is the temperature of the solid-liquid transition. `Cc1ccc2c(c1)C(=O)C(=O)N2Cc1cccc(C(F)(F)F)c1` [Compound 4e, 5-Methyl-1-(3-(trifluoromethyl)benzyl)indoline-2,3-dione] gave a melting point of 155 to 156 °C. In data set [4], this molecule displayed a 50% inhibitory concentration (IC50) of 94 ± 7.5 µM. This molecule gave an IC50 in data set [5] of over 100 µM. This molecule came in with an IC50 in data set [8] of 53.2 ± 3.9 µM.
On the same counts, the results for `Cc1ccc(CN2C(=O)C(=O)c3cc(F)ccc32)cc1` [Compound 4a, 5-Fluoro-1-(4-methylbenzyl)indoline-2,3-dione] are 111 to 112 °C, 44.7 ± 3.3 µM, 80 ± 5.8 µM and 44 ± 2.9 µM.
The like results for `Cc1cc(C)cc(CN2C(=O)C(=O)c3cc(F)ccc32)c1` [Compound 4b, 1-(3,5-Dimethylbenzyl)-5-fluoroindoline-2,3-dione] were, in that order, 97 to 98 °C, 58.8 ± 4.4 µM, 63.2 ± 5.5 µM and 50 ± 3.8 µM.
For the molecule `O=C1C(=O)N(Cc2ccccc2F)c2ccc(F)cc21` [Compound 3a, 5-Fluoro-1-(2-fluorobenzyl)indoline-2,3-dione], the “lengthening of the lag-period relative to the control” value in data set [2] is recorded as “more than 10%”. Further, in data set [2], the “reduction of the maximum platelet aggregation, on average” value is listed as about 12%. In addition, the “cytotoxicity against the healthy cell line WI38” value in data set [3] is reported as “low cytotoxicity”. The IC50 in [3] stood at 62 ± 2 µM; in data set [4], 74.6 ± 5.9 µM; in data set [5], 53 ± 4.2 µM; in data set [8], 25.2 ± 1.9 µM. The “increase in ROS production relative to the control” value in data set [6] (12.5 µM) was 1.1 fold; in data set [6] (25 µM), 7.1 times. The “selectivity (SI) for HuTu 80” value in [8] is given as 2.5.
`O=C1C(=O)N(Cc2c(F)c(F)c(F)c(F)c2F)c2ccc(F)cc21` [Compound 3f, 5-Fluoro-1-((perfluorophenyl)methyl)indoline-2,3-dione] displayed a melting point of 112 to 113 °C. The molecule also returned a half-maximal inhibitory concentration (IC50) in [4] of 100 ± 7.4 µM. In data set [5], the IC50 is over 100 µM. This molecule also yielded an IC50 in [8] of 92 ± 6.4 µM.
With `O=C1C(=O)N(Cc2c(F)cccc2Cl)c2ccc(F)cc21` [Compound 3d, 1-(2-Chloro-6-fluorobenzyl)-5-fluoroindoline-2,3-dione], in data set [3], the “cytotoxicity against the healthy cell line WI38” value was “low cytotoxicity” and the IC50 was 78.3 ± 8 µM. For the same molecule, in data set [4], 53.8 ± 4.3 µM corresponded to half-maximal inhibition (IC50) and the “selectivity (SI) for M-HeLa” value is listed as 1.5. This molecule also gave an IC50 in data set [5] of over 100 µM. For the same molecule, in [6], the “ROS production relative to the control” value is reported as “increased ROS production”. In addition, the “green fluorescence increased relative to the control” value in [7] is recorded as “up to 55%”. In [8], the IC50 came out at 31 ± 2.4 µM and the “selectivity (SI) for HuTu 80” value came to 2.5.
For the molecule `O=c1[nH]cc(F)c(=O)[nH]1` [Compound 5-FU, 5-fluorouracil, reference compound], the concentration for half-maximal inhibition (IC50) in [3] came out at 62 ± 4.2 µM; in data set [4], 62 ± 4.9 µM; in [5], 19 ± 1.7 µM. Further, the “selectivity (SI) for M-HeLa” value in data set [4] is listed as at most 1. In data set [8], the “selectivity (SI) for HuTu 80” value is at most 1.
